# Experimental data from US9700056B2.
# How the values were obtained:
# [1] = tested on: Sphaerotheca fuliginea; experiment: Sphaerotheca test (cucumbers)/preventive; details: evaluated 7 days after inoculation
# Description: After the spray coating has dried on, the plants are inoculated with an aqueous spore suspension of Sphaerotheca fuliginea. The plants are then placed in a greenhouse at approximately 23° C. and a relative atmospheric humidity of approximately 70%.
# The test is evaluated 7 days after the inoculation.
# [2] = tested on: Venturia inaequalis; experiment: Venturia test (apples)/preventive; details: Table A, preventive, evaluated 10 days after inoculation
# Description: After the spray coating has dried on, the plants are inoculated with an aqueous conidia suspension of the causal agent of apple scab (Venturia inaequalis) and then remain for 1 day in an incubation cabinet at approximately 20° C. and a relative atmospheric humidity of 100%.
# The plants are then placed in a greenhouse at approximately 21° C. and a relative atmospheric humidity of approximately 90%.
# The test is evaluated 10 days after the inoculation.
# [3] = tested on: Botrytis cinerea; experiment: Botrytis test (beans)/preventive; details: Table D, preventive, application rate 10 ppm a.i., size of lesions 2 days after inoculation
# Description: After the spray coating has dried on, 2 small pieces of agar covered with growth of Botrytis cinerea are placed on each leaf. The inoculated plants are placed in a darkened chamber at 20° C. and a relative atmospheric humidity of 100%.
# 2 days after the inoculation, the size of the lesions on the leaves is evaluated.
# [4] = tested on: Alternaria solani; experiment: Alternaria test (tomatoes)/preventive; details: Table C, preventive, application rate 50 ppm a.i., evaluated 3 days after inoculation
# Description: After the spray coating has dried on, the plants are inoculated with an aqueous spore suspension of Alternaria solani. The plants are then placed in an incubation cabinet at approximately 20° C. and a relative atmospheric humidity of 100%.
# The test is evaluated 3 days after the inoculation.
# [5] = Table B2, preventive, application rate 2 ppm a.i.
# [6] = Table B1, preventive, application rate 100 ppm a.i.
SMILES,"Efficacy in % found [1, 5] [%]",Efficacy in % found [4] [%],"Efficacy in % found [1, 6] [%]",also measured
"OC(Cc1ccccc1Cl)(Cn1nc[nH]c1=S)C1(Cl)CC1 (stereo not shown) [F41 prothioconazole, prothioconazole]",38,–,–,–
"CC1COC(Cn2cncn2)(c2ccc(Oc3ccc(Cl)cc3)cc2Cl)O1 (stereo not shown) [F7 difenoconazole, difenoconazole]",0,–,–,Efficacy in % found ([2]; application rate 1 ppm a.i.): 20%
"CC1(C(=O)Nc2ccc(O)c(Cl)c2Cl)CCCCC1 [F16 fenhexamid, fenhexamid]",–,43,33,Efficacy in % found [3]: 88%
"CC(C)(C)C(O)(CCc1ccc(Cl)cc1)Cn1cncn1 (stereo not shown) [F47 tebuconazole, tebuconazole]",29,–,–,Efficacy in % found ([2]; application rate 2 ppm a.i.): 13%
"CCCN(CC)CC1COC2(CCC(C(C)(C)C)CC2)O1 (stereo not shown) [F46 spiroxamine, spiroxamine]",–,62,38,–
